One block for each compound: values may come before it.
Tests used:
[1] = Circular dichroism thermal melting (triple helix transition temperature); type: physicochemical; conditions: for Tm (transition temperature determined by circular dichroism spectroscopy): measured in 57.5 μM acetic acid solution
Experimental: Circular dichroism (CD) spectra were recorded on JASCO 710 spectrometer equipped with JASCO PTC-348 WI temperature controller and Hellma cell (400 μL, 0.1 mm pathlength). The thermal melting curves were obtained by measuring the molar ellipticity at 225 nm with 1° C./min heating rate. All samples (57 μM in 50 mM acetic acid) were stored at 4° C. for 24 hours before the CD measurement.
The thermal melting curves were obtained by measuring the ellipticity of peptide in deionized (DI) water (0.5˜2 mM) at 225 nm with 0.1° C./min heating rate. All samples were stored at 4° C. for 24 hours before the measurement. (FIG. 15)
Triple-helical conformation of the CMP was confirmed by circular dichroism (CD) spectroscopy. Peptide samples (250 or 500 μM) were prepared in distilled water and incubated at 4° C. overnight before the CD measurement. CD was recorded between 180 and 280 nm on a JASCO'710 CD spectrometer at various temperatures under a nitrogen flow. Each measurement had static equilibrium time of 30 minutes.

[2] = target: T1, collagen films (type I, bovine) (Bos taurus, UniProt P02453+P02465); test: CMP-collagen film affinity study (fluorescence intensity of treated films); type: binding; conditions: for affinity toward collagen film (fluorescence intensity): solution pre-equilibrated at 25° C. or 80° C., both conditions, 3 h at room temperature
T1 construct: natural collagen (acid soluble, bovine type I); purchased Sigma
Experimental: The transition melting temperature of collagen film as determined by circular dichroism spectroscopy is shown at FIG. 4. To the collagen-coated cell culture wells (at room temperature) was added a solution of 2 which was pre-equilibrated at either 25° C. or 80° C. After three hours of incubation at room temperature, the collagen films were washed with buffer solution and observed by fluorescence microscope. As control samples, 5CF, fluorescein isothiocyanate-dextran (FITC-Dextran), and peptide 3 were used to treat collagen films under identical experimental conditions. […] Similar results were obtained when gelatin films were used as a substrate (FIG. 5A: Group c). In addition, the helical content of CMP treated collagen film was 3.5 times higher than that of the film treated with a blank solution (see support information).
In order to understand the effect of collagen film denaturation in the CMP binding process, a shorter CMP derivative was synthesized, peptide 4, with a melting temperature (25° C.) well below that of the collagen film. […] In addition, the modified collagen fiber retained its native banding texture when investigated by transmission electron microscopy (FIG. 6). Hotter solutions (60° C. and 80° C.) which denature the collagen film during the treatment produced collagen films with slightly higher CMP content (approximately 20% increase from that of the […] solution).
To each well of a 96-well culture plate was added 200 μl of saturated collagen (acid soluble, type I bovine) solution in 0.5 M acetic acid. The culture plate was air-dried to form transparent collagen films. The films were neutralized with 0.01 M potassium phosphate buffer (pH 7.4), and washed with distilled water. To the collagen-coated wells were added 40 μl of 0.01 M potassium phosphate solutions (pH 7.4) containing 50 μM of either CF (5-carboxyfluorescein), FITC-Dextran, and peptides 2, 3, or 4, which were pre-equilibrated at 25° C. or 80° C. After 3 hours of incubation at room temperature, the wells were washed with 0.01 M potassium phosphate buffer solution (pH 7.4) and observed by fluorescence microscope (Eclips ME 600, Nikon Corp). The total fluorescence intensity was acquired from the fluorescence micrographs using Meta Imaging Series V4.5, (Universal Imaging Corporation, Dowingtown Pa.). Average values of four independent experiments are reported.

collagen fibers (type I) = target: T2, collagen fibers (type I) (Bos taurus, UniProt P02453+P02465); test: TEM analysis of the modified collagen fibers; design: species or system bovine; conditions: treatment at 30° C.
T2 construct: natural collagen (acid soluble, bovine type I); purchased Sigma
Experimental: Collagen fibers were prepared by dialysis of collagen in 0.01M acetic acid solution against dilute NaCl solution. Peptide 4 in potassium phosphate buffer (400 μl, 500 μM, pH 7.4) was added to the collagen fibers in the PBS buffer (1 ml, 1 mg/ml, pH 7.4). The mixture was incubated for 3 hours and excess peptide 4 was removed by repeated centrifugation. The collagen fibers were resuspended in deionized water and transferred to a TEM grid. Uranyl acetate was used to stain the collagen fiber. (FIG. 6)

[3] = system: breast epithelial cells (MCF-7); test: Cell adhesion study on treated collagen film, breast epithelial cells; type: cell-based, human; conditions: for invasion of treated films by fibroblasts or epithelial cells: summary statement
Experimental: (§1) The melting temperature of 5 was determined to be 29° C. which is 7° C. lower than the melting temperature of (ProHypGly)7 (SEQ ID NO: 40) (Table 1).^27 Here, the hydrophilic and bulky PEG group seems to destabilize the triple helix in water. A solution containing 5 at 45° C. was added to the collagen coated culture plate (prepared as above) and human fibroblasts or breast epithelial cells were seeded and incubated for three days at 37° C. […] In contrast, areas of collagen films treated with 5 are almost devoid of fibroblasts (FIG. 7B) and epithelial cells (FIG. 7C).
For applications where it is desirable to repel cell growth for prolonged periods (e.g., weeks or months), it is desirable to employ CMPs of increased length. In films that were treated with mPEG2000-Gly3-(Pro-Hyp-Gly)7 (SEQ ID NO: 6), cell growth extending into the treated area was observed after 3 days in culture (FIGS. 9A, 9B, and 9C). This might be due to the release of mPEG2000-Gly3-(Pro-Hyp-Gly)7 (SEQ ID NO: 6) from the PEG-CMP modified collagen film during incubation at 37° C.
(Pro-Hyp-Gly)8-Gly3-PEG5000-OH (SEQ ID NO: 26) with lengthened CMP and PEG, was designed to prolong the anti-adhesive property of pegylated CMP modified collagen to cells. Its melting temperature is 38° C. in PBS solution. A delay in invasive cell growth was observed on areas of the collagen film treated with (Pro-Hyp-Gly)8-Gly3-PEG5000-OH (SEQ ID NO: 26) (FIGS. 10A and FIG. 10B). […] It can also be seen from the images that cells outside the treated area grow vertically before invading the treated area.
(§2) To the collagen film (prepared as above) was added 10 μl of peptide 5 solution (2 mM in pH 7.4 potassium phosphate buffer). The film was allowed to dry and excess materials were removed by washing with potassium phosphate buffer (pH 7.4, 50 mM) and culture medium (DMEM or IMDM). Cells were added to the culture well and incubated at room temperature for 30 minutes. Human fibroblasts (CRL-1502) were seeded at 4.5×10^5 cell/ml cell density in DMEM and breast epithelial cells (MCF-7) at 5.6×10^5 cells/ml density in cell culture media (IMDM). The nonattached cells were removed by rinsing the well three times with growth medium and PBS buffer. The remaining cells were incubated at 37° C. (5% CO2) for three days. The growth medium was exchanged after 48 hours.

[4] = Circular dichroism thermal melting (triple helix transition temperature); type: physicochemical; conditions: in PBS solution
collagen film = target: T3, collagen film (Bos taurus, UniProt P02453+P02465); test: Release of fluorescence-labeled CMP derivatives from collagen films; conditions: 37° C., PBS solution pH 7.4
T3 construct: natural collagen (acid soluble, bovine type I); purchased Sigma
Source text: The release of fluorescence-labeled PEG-CMPs derivatives from collagen films is shown in (FIG. 11).

[5] = system: Human fibroblasts (CRL-1502); test: Cell adhesion study on treated collagen film, human fibroblasts; type: cell-based; conditions: three days at 37° C.
Experimental: as §1, §2

[6] = comparison value; cited from earlier work
[7] = target: T4, Collagen (type I, bovine) film (Bos taurus, UniProt P02453+P02465); test: Helical content estimation of the modified collagen films by CD
T4 construct: natural collagen (acid soluble, bovine type I); purchased Sigma
Experimental: Collagen (type I, bovine) film was treated with either peptide 2 solution or blank buffer solution as described before. After 3 hr of incubation at room temperature, the wells were washed with 0.01 M potassium phosphate buffer solution (pH 7.4) and deionized water. All samples were dissolved in 50 mM acetic acid to a concentration of 1.80 μM or 3.60 μM and stored at 4° C. for 24 hours before the CD measurement. Average values of four independent experiments are reported (FIG. 4).

[8] = solution pre-equilibrated at 80° C.

T1 sequence (P02453 162-1217 limits assumed): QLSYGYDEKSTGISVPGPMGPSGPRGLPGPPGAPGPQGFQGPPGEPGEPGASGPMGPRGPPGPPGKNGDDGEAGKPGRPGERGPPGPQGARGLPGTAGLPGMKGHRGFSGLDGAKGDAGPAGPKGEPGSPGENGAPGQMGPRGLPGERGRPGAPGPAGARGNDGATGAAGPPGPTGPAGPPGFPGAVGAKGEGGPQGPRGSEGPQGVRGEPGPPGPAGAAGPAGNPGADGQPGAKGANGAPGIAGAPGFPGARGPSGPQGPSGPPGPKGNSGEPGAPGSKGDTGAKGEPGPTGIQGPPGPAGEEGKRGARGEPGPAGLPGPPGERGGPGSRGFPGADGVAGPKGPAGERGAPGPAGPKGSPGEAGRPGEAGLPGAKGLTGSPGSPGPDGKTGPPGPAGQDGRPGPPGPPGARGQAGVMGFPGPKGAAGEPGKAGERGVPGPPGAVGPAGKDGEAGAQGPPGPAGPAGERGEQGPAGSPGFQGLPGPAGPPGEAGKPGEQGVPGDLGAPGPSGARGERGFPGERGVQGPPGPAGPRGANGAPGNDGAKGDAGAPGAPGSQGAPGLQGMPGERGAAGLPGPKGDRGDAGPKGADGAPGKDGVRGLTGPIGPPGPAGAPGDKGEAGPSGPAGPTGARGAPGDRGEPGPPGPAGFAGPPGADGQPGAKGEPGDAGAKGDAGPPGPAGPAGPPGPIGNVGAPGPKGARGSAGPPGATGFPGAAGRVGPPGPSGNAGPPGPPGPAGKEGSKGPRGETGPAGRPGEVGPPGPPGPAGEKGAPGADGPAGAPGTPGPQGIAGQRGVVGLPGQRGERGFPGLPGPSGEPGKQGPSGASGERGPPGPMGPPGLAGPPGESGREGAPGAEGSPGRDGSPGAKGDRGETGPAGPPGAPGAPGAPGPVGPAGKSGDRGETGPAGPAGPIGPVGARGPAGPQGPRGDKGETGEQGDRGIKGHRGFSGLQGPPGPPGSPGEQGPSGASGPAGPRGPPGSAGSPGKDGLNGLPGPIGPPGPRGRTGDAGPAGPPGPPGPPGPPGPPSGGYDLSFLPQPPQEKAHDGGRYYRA
T1 sequence (P02465 80-1117 limits assumed): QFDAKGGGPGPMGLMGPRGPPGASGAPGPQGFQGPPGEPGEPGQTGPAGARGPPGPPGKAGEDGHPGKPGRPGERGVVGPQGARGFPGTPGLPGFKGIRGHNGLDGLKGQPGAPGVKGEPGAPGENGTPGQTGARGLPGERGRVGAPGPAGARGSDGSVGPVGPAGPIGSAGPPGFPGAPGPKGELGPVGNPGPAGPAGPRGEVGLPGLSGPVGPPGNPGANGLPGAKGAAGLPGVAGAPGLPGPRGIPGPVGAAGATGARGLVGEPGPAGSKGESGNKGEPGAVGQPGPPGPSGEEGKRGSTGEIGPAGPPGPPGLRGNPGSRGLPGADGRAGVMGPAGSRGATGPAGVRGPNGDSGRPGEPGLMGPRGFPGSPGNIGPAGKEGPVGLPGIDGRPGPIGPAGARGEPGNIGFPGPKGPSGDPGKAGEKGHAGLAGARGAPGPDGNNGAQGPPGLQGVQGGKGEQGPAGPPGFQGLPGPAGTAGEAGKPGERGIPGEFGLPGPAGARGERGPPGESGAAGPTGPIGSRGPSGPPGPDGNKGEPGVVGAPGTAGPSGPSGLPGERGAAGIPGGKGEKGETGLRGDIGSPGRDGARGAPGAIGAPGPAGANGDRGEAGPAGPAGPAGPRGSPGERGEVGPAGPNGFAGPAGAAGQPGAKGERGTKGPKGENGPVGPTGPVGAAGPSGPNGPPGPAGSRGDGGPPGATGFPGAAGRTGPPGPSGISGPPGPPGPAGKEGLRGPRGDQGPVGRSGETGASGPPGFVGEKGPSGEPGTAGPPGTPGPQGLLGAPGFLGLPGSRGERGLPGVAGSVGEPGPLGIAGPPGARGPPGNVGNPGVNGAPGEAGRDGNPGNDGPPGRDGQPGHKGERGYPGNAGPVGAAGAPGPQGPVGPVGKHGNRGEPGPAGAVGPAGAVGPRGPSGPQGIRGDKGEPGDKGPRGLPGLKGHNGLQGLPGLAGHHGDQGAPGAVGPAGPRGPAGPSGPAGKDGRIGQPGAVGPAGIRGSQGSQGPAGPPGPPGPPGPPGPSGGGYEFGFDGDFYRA
T4 sequence (P02453 162-1217 limits assumed): as the sequence (P02453 162-1217 limits assumed) above
T4 sequence (P02465 80-1117 limits assumed): as the sequence (P02465 80-1117 limits assumed) above
T2 sequence (P02453 162-1217 limits assumed): as the sequence (P02453 162-1217 limits assumed) above
T2 sequence (P02465 80-1117 limits assumed): as the sequence (P02465 80-1117 limits assumed) above
T3 sequence (P02453 162-1217 limits assumed): as the sequence (P02453 162-1217 limits assumed) above
T3 sequence (P02465 80-1117 limits assumed): as the sequence (P02465 80-1117 limits assumed) above

Compound: -(ProHypGly)10- [Compound 1]
- Tm (transition temperature determined by circular dichroism spectroscopy) [1]: 69 °C

Compound: (Pro-Hyp-Gly)8-Gly3-PEG5000-OH
- time for which the treated gel repelled extensive cell growth [3]: close to eleven days
- cell invasion into treated areas of the collagen film ([3]; after eleven days in culture): Extensive invasion
- cell invasion into treated areas of the collagen film ([3]; after five days in culture): little invasion
- cell invasion into treated areas of the collagen film ([3]; after nine days in culture): moderate invasion
- invasion of treated films by fibroblasts or epithelial cells [3]: dramatically reduced invasion
- melting temperature [4]: 38 °C

Compound: mPEG2000-Gly3-(ProHypGly)7- [Compound 5]
- melting temperature lower than that of (ProHypGly)7 ([1]; difference): 7 °C
- Tm (transition temperature determined by circular dichroism spectroscopy) [1]: 29 °C
- fibroblasts on treated area of collagen film [5]: almost devoid
- cell growth extending into the treated area observed after ([3]; in culture at 37° C.): 3 days
- invasion of treated films by fibroblasts or epithelial cells [3]: dramatically reduced invasion
- epithelial cells on treated area of collagen film ([3]; three days at 37° C.): almost devoid

Compound: CH3O—(CH2—CH2—O)n—OH [mPEG2000, reference compound]
- fibroblasts on treated area of collagen film [5]: Homogenous distribution of fibroblasts

Compound: (Pro-Hyp-Gly)7
- melting temperature of unmodified (Pro-Hyp-Gly)7 CMP [6]: 37 °C

Other lines, results leading:

- Tm (transition temperature determined by circular dichroism spectroscopy) [1]: 25 °C
- Tm (transition temperature determined by circular dichroism spectroscopy) ([1]; listed as peptide 4): 25 °C
- increase in CMP content of collagen film from that of the 30° C. solution ([2]; hotter solutions (60° C. and 80° C.)): approximately 20%
- binding to collagen film ([2]; solution at 10° C.): Little binding
- increase in CMP attachment compared to the 10° C. solution ([2]; solution pre-equilibrated at 30° C.): more than three-fold increase
- banding pattern of collagen fibers after treatment (collagen fibers (type I)): native banding pattern
Compound: 5CF-Gly3-(ProHypGly)6- [Compound 4]

- affinity toward collagen film (fluorescence intensity) [2]: negligible affinity
Compound: fluorescein isothiocyanate-dextran [FITC-Dextran, reference compound]

- CD melting temperature (midpoint of CD melting curve) ([1]; peptide in distilled water): 38.5 °C
Compound: (ProHypGly)7-Tyr

- affinity toward collagen film (fluorescence intensity) [2]: negligible affinity
Compound: O=C(O)c1ccc2c(c1)C(=O)OC21c2ccc(O)cc2Oc2cc(O)ccc21 [Compound 5CF, 5-carboxyfluorescein, reference compound]

- release from collagen film relative to 5CF-Gly3-(Pro-Hyp-Gly)8-Gly3-PEG5000-OH (collagen film): faster
Compound: FL-PEG2000-Gly3-(Pro-Hyp-Gly)7

- Tm (CD melting transition temperature) ([1]; Cys-CMP derivatives, deionized water, ellipticity at 225 nm): 21 °C
- Tm (transition temperature determined by circular dichroism spectroscopy) [1]: 75 °C
- Tm (transition temperature determined by circular dichroism spectroscopy) ([1]; listed as peptide 2): 75 °C
- fluorescence of treated collagen film ([2]; solution pre-equilibrated at 25° C.): negligible fluorescence
- fluorescence of treated collagen film [2, 8]: strong fluorescence
- helical content of treated collagen film relative to film treated with blank solution [7]: 3.5 times
- original helical content of collagen film retained after treatment [7, 8]: 80%
Compound: 5CF-Gly3-(ProHypGly)10- [Compound 2]
